{"source": "paper PMC9820082", "about": "“Synthesis of 9-Hydroxy-1H-Benzo[f]chromene Derivatives with Effective Cytotoxic Activity on MCF7/ADR, P-Glycoprotein Inhibitors, Cell Cycle Arrest and Apoptosis Effects” (International Journal of Molecular Sciences, 2022)", "key": {"[1]": {"tested_on": "MCF-7/ADR cells", "assay": "Cell cycle analysis by flow cytometry (PI staining)", "assay_type": "cell-based, human", "details": "IC50 values, 24 h", "source_text": "Cancer cells undergo unscheduled cell divisions by the down-regulation of the four cell cycle stages (G1, S, G2 and M); therefore, the development of anticancer agents targeting cell cycle arrest represents an important therapeutic intervention. P-gp breast cancer resistance proteins (BCRP) inhibit the action of anticancer drugs on cell cycle arrest by preventing intercellular drug accumulation. By using flow cytometry and the FACS Calibers, it was possible to examine how the potent-produced compounds (4a, 4c, 4e, 4g and 4i) affected the regulation of cell cycle progression in MCF-7/ADR cells (Becton Dickinson). […] The outcomes of the cell cycle progression give three different results showing compounds with cell cyclic arrest at the G1 phase (4d and 4e), while there were other compounds at the S phase (4a and 4c) and a final compound with cell cycle arrest at both of the G1/S phases (4g and 4i). […] According to the cell cycle analysis, the tested derivatives considerably stopped the MCF-7/ADR cancer cells in the G1/S phase.\nFigure 6 Effects of compounds 4a, 4c–4e, 4g and 4i on the cell cycle phases of MCF-7/ADR cells. […] Their DNA content was analyzed using fluorescence flow cytometry. […] The data are expressed as the mean ± SD of three independent experiments in triplicate. Significances are shown in comparison to control cells (* p < 0.001). TEXT PRINTED IN THE PICTURE: (a) DOX.: %DIP G1 63.03% (MCF7/ADR); %DIP G2/M 13.09% (MCF7/ADR); %DIP S 23.88% (MCF7/ADR) | (a) 4a: %DIP G1 41.63% (MCF7/ADR); %DIP G2/M 5.55% (MCF7/ADR); %DIP S 52.82% (MCF7/ADR) | (a) 4c: %DIP G1 52.13% (MCF7/ADR); %DIP G2/M 9.91% (MCF7/ADR); %DIP S 37.96% (MCF7/ADR) | (a) 4d: %DIP G1 59.42% (MCF7/ADR); %DIP G2/M 13.75% (MCF7/ADR); %DIP S 26.83% (MCF7/ADR) | (a) 4e: %DIP G1 67.32% (MCF7/ADR); %DIP G2/M 8.6% (MCF7/ADR); %DIP S 24.08% (MCF7/ADR) | (a) 4g: %DIP G1 59.37% (MCF7/ADR); %DIP G2/M 3.67% (MCF7/ADR); %DIP S 36.96% (MCF7/ADR) | (a) 4i: %DIP G1 5.68% (MCF7/ADR); %DIP G2/M 57.61% (MCF7/ADR); %DIP S 36.71% (MCF7/ADR) DOUBTS OF THE COPYIST ABOUT THIS PICTURE: The print in the histogram insets of panel (a) is very small and blurred; 3, 5, 6, 8 and 9 cannot be told apart with certainty in any value, so all values below are best readings. / DOX., %DIP G1 63.03%: 3s may be 8s / DOX., %DIP G2/M 13.09%: 9 may be 8; 3 may be 5 / DOX., %DIP S 23.88%: 8s may be 3 or 6 / 4a, %DIP G1 41.63%: 6 or 8; 3 or 8 / 4a, %DIP G2/M 5.55%: 5s may be 6 or 3 / 4a, %DIP S 52.82%: 8 may be 3 or 6 / 4c, %DIP G1 52.13%: 3 or 8 / 4c, %DIP G2/M 9.91%: 9s may be 8 / 4c, %DIP S 37.96%: 9 or 8; 6 or 8 / 4d, %DIP G1 59.42%: 9 or 8 / 4d, %DIP G2/M 13.75%: 3 or 8; 5 or 6 / 4d, %DIP S 26.83%: 6, 8 and 3 uncertain / 4e, %DIP G1 67.32%: 6 or 8; 3 or 8 / 4e, %DIP G2/M 8.6%: 8 and 6 uncertain; a further digit may be missing / 4e, %DIP S 24.08%: 8 may be 3 or 6 / 4g, %DIP G1 59.37%: 9 or 8; 3 or 8 / 4g, %DIP G2/M 3.67%: 3 or 8; 6 or 8 / 4g, %DIP S 36.96%: 3, 6 and 9 uncertain / 4i, %DIP G1 5.68%: 5, 6 and 8 uncertain; the value seems to be printed against G1 although a leading digit could be hidden / 4i, %DIP G2/M 57.61%: 5 or 6; 6 or 8 / 4i, %DIP S 36.71%: 3 or 8; 6 or 8 / The untreated control (Cont.) also carries printed percentages (%DIP G1 55.38%, %DIP G2/M 15.01%, %DIP S 29.61%) but was left out because it is not a substance."}, "[2]": {"tested_on": "HeLa (cervical cancer cell line)", "assay": "MTT colorimetric cytotoxicity assay, HeLa", "assay_type": "cell-based, human", "details": "Homo sapiens, HeLa, 24 h, 24 h incubation, mean ± standard error", "protocol": "(§1) Three human cancer cell lines, PC-3 (human prostate adenocarcinoma, metastatic), […], were used to test the anti-proliferative activity of β-enaminonitrile (4a–p) using the MTT colorimetric assay at concentrations ranging from 0–100 μM. The representative active cytotoxic substances 4a, 4c, 4d, 4e, 4g, 4i, 4k and 4o were also tested against two normal cell lines, human fetal lung (HFL-1) and human diploid fibroblasts (WI-38), as well as Adriamycin (ADR)-resistant human breast cancer cells (MCF-7/ADR). The reference cytotoxic agents, Vinblastine and Doxorubicin, were used in the tests.\n(§2) The cytotoxic activity was appraised using the 3-(4,5-dimethylthiazol-2-yl)-2,5-diphenyltetrazolium bromide (MTT) colorimetric assay for the antitumor cell lines, as reported previously, and the ELISA assay for MCF-7/ADR [69]."}, "[3]": {"tested_on": "human diploid fibroblasts (WI-38)", "assay": "Cytotoxicity against normal cell line WI-38", "assay_type": "cell-based", "details": "24 h incubation, mean ± standard error", "protocol": "as §1\n(§3) The tumor cell lines MCF-7, HepG-2, PC-3 MCF-7/ADR, HFL-1 and (WI-38) were obtained from the American Type Culture Collection (ATCC, Rockville, MD, USA). The cells were grown on RPMI-1640 medium supplemented with 10% inactivated fetal calf serum and 50 µg/mL gentamycin. The cells were maintained at 37 ^οC in a humidified atmosphere with 5% CO2 and were subcultured two to three times a week.\nas §2"}, "[4]": {"tested_on": "PC-3 (human prostate adenocarcinoma, metastatic)", "assay": "MTT colorimetric cytotoxicity assay, PC-3", "assay_type": "cell-based", "details": "for IC50: Homo sapiens, MTT, 24 h incubation, mean ± standard error; for times more active than Doxorubicin / times more active than Vinblastine: PC-3 cells, ratio of IC50 values", "protocol": "as §1, §3, §2"}, "[5]": {"tested_on": "SKOV-3 (ovarian cancer cell line)", "assay": "MTT colorimetric cytotoxicity assay, SKOV-3", "assay_type": "cell-based, human", "details": "24 h incubation, mean ± standard error", "protocol": "as §1, §2"}, "[6]": {"tested_on": "human fetal lung (HFL-1)", "assay": "Cytotoxicity against normal cell line HFL-1", "assay_type": "cell-based", "details": "24 h incubation, mean ± standard error", "protocol": "as §1, §3, §2"}}, "data": [{"compound": "N#CC1=C(N)Oc2ccc3ccc(O)cc3c2C1c1ccc(Cl)c(Cl)c1", "note": "(stereo not shown) [4g, 3-Amino-1-(3,4-Dichlorophenyl)-9-Hydroxy-1H-Benzo[f]chromene-2-Carbonitrile]", "values": [{"measurement": "cell cycle arrest phase", "setting": "[1]", "value": "G1/S phases"}, {"measurement": "IC50", "setting": "[2]", "value": "2200 ± 200", "unit": "nM"}, {"measurement": "IC50", "setting": "[3]; Homo sapiens, WI-38, 24 h", "value": "26300 ± 200", "unit": "nM"}, {"measurement": "IC50", "setting": "[4]", "value": "2400 ± 100", "unit": "nM"}, {"measurement": "IC50", "setting": "[5]; Homo sapiens, SK-OV-3, 24 h", "value": "900 ± 300", "unit": "nM"}, {"measurement": "IC50", "setting": "[6]; Homo sapiens, HFL1, 24 h", "value": "27400 ± 100", "unit": "nM"}]}, {"compound": "N#CC1=C(N)Oc2ccc3ccc(O)cc3c2C1c1cc(Br)cc(Br)c1", "note": "(stereo not shown) [4i, 3-Amino-1-(3,5-Dibromophenyl)-9-Hydroxy-1H-Benzo[f]chromene-2-Carbonitrile]", "values": [{"measurement": "cell cycle arrest phase", "setting": "[1]", "value": "G1/S phases"}, {"measurement": "IC50", "setting": "[2]", "value": "3400 ± 600", "unit": "nM"}, {"measurement": "IC50", "setting": "[3]; Homo sapiens, WI-38, 24 h", "value": "29200 ± 1200", "unit": "nM"}, {"measurement": "IC50", "setting": "[4]", "value": "800 ± 100", "unit": "nM"}, {"measurement": "times more active than Doxorubicin", "setting": "[4]", "value": 1.6, "unit": "times"}, {"measurement": "times more active than Vinblastine", "setting": "[4]", "value": 9.4, "unit": "times"}, {"measurement": "IC50", "setting": "[5]", "value": "1100 ± 100", "unit": "nM"}, {"measurement": "IC50", "setting": "[5]; Homo sapiens, SK-OV-3, 24 h", "value": 1200, "unit": "nM"}, {"measurement": "IC50", "setting": "[6]", "value": "38100 ± 400", "unit": "nM"}, {"measurement": "IC50", "setting": "[6]; Homo sapiens, HFL1, 24 h", "value": "19100 to 30100", "unit": "nM"}]}, {"compound": "N#CC1=C(N)Oc2ccc3ccc(O)cc3c2C1c1cccc(Cl)c1Cl", "note": "(stereo not shown) [4c, 3-Amino-1-(2,3-Dichlorophenyl)-9-Hydroxy-1H-Benzo[f]chromene-2-Carbonitrile]", "values": [{"measurement": "cell cycle arrest phase", "setting": "[1]", "value": "S phase"}, {"measurement": "IC50", "setting": "[2]", "value": "1700 ± 100", "unit": "nM"}, {"measurement": "IC50", "setting": "[3]; Homo sapiens, WI-38, 24 h", "value": "29400 ± 100", "unit": "nM"}, {"measurement": "IC50", "setting": "[4]", "value": "2900 ± 700", "unit": "nM"}, {"measurement": "IC50", "setting": "[5]", "value": "4000 ± 600", "unit": "nM"}, {"measurement": "IC50", "setting": "[6]; Homo sapiens, HFL1, 24 h", "value": "22100 ± 200", "unit": "nM"}]}, {"compound": "N#CC1=C(N)Oc2ccc3ccc(O)cc3c2C1c1ccc(Cl)cc1Cl", "note": "(stereo not shown) [4d, 3-Amino-1-(2,4-Dichlorophenyl)-9-Hydroxy-1H-Benzo[f]chromene-2-Carbonitrile]", "values": [{"measurement": "cell cycle arrest phase", "setting": "[1]", "value": "G1 phase"}, {"measurement": "IC50", "setting": "[2]", "value": "1800 ± 100", "unit": "nM"}, {"measurement": "IC50", "setting": "[3]", "value": "39100 ± 200", "unit": "nM"}, {"measurement": "IC50", "setting": "[4]", "value": "2000 ± 700", "unit": "nM"}, {"measurement": "IC50", "setting": "[5]; Homo sapiens, SK-OV-3, 24 h", "value": "1500 ± 100", "unit": "nM"}, {"measurement": "IC50", "setting": "[6]; Homo sapiens, HFL1, 24 h", "value": "20100 ± 400", "unit": "nM"}]}, {"compound": "N#CC1=C(N)Oc2ccc3ccc(O)cc3c2C1c1ccc(F)cc1F", "note": "(stereo not shown) [4a, 3-Amino-1-(2,4-Difluorophenyl)-9-Hydroxy-1H-Benzo[f]chromene-2-Carbonitrile]", "values": [{"measurement": "cell cycle arrest phase", "setting": "[1]", "value": "S phase"}, {"measurement": "IC50", "setting": "[2]", "value": "2800 ± 300", "unit": "nM"}, {"measurement": "IC50", "setting": "[3]", "value": "34300 ± 1200", "unit": "nM"}, {"measurement": "IC50", "setting": "[3]; Homo sapiens, WI-38, 24 h", "value": "19100 to 30100", "unit": "nM"}, {"measurement": "IC50", "setting": "[4]", "value": "1100 ± 400", "unit": "nM"}, {"measurement": "times more active than Doxorubicin", "setting": "[4]", "value": 1.2, "unit": "times"}, {"measurement": "times more active than Vinblastine", "setting": "[4]", "value": 6.8, "unit": "times"}, {"measurement": "IC50", "setting": "[5]; Homo sapiens, SK-OV-3, 24 h", "value": "1400 ± 200", "unit": "nM"}, {"measurement": "IC50", "setting": "[6]; Homo sapiens, HFL1, 24 h", "value": "26500 ± 300", "unit": "nM"}]}, {"compound": "N#CC1=C(N)Oc2ccc3ccc(O)cc3c2C1c1cc(Cl)ccc1Cl", "note": "(stereo not shown) [4e, 3-Amino-1-(2,5-Dichlorophenyl)-9-Hydroxy-1H-Benzo[f]chromene-2-Carbonitrile]", "values": [{"measurement": "cell cycle arrest phase", "setting": "[1]", "value": "G1 phase"}, {"measurement": "IC50", "setting": "[2]", "value": "2700 ± 600", "unit": "nM"}, {"measurement": "IC50", "setting": "[3]; Homo sapiens, WI-38, 24 h", "value": "25400 ± 1100", "unit": "nM"}, {"measurement": "IC50", "setting": "[4]", "value": "2100 ± 500", "unit": "nM"}, {"measurement": "IC50", "setting": "[5]; Homo sapiens, SK-OV-3, 24 h", "value": "1100 ± 400", "unit": "nM"}, {"measurement": "IC50", "setting": "[6]; Homo sapiens, HFL1, 24 h", "value": "24100 ± 300", "unit": "nM"}]}]}
